Assay results published in the NIST ThermoML archive (doi:10.1021/je700321s).

Assay: xn = mol fraction of the nth substance listed
Conditions: Liquid, Vibrating tube method

CC(C)O [propan-2-ol] + O=C=O
Conditions	mass density [kg/m3]
313.08 K, 10061 kPa, x2 = 0.7943	800.9
313.08 K, 10515 kPa, x2 = 0.7943	804
313.08 K, 11013 kPa, x2 = 0.7943	807.3
313.08 K, 11507 kPa, x2 = 0.7943	810.6
313.08 K, 11994 kPa, x2 = 0.7943	813.5
313.08 K, 12199 kPa, x2 = 0.7943	814.6
313.08 K, 12410 kPa, x2 = 0.7943	815.6
313.08 K, 12606 kPa, x2 = 0.7943	816.7
313.09 K, 2502 kPa, x2 = 0.139	781.7
313.09 K, 3002 kPa, x2 = 0.139	782.3
313.09 K, 3513 kPa, x2 = 0.139	782.9
313.09 K, 4008 kPa, x2 = 0.139	783.5
313.09 K, 4501 kPa, x2 = 0.139	784.1
313.09 K, 5001 kPa, x2 = 0.139	784.7
313.09 K, 5497 kPa, x2 = 0.139	785.3
313.09 K, 6023 kPa, x2 = 0.139	785.9
313.09 K, 6504 kPa, x2 = 0.139	786.5
313.09 K, 7026 kPa, x2 = 0.139	787.1
313.09 K, 7489 kPa, x2 = 0.139	787.6
313.09 K, 7960 kPa, x2 = 0.9492	642.1
313.09 K, 7998 kPa, x2 = 0.139	788.2
313.09 K, 8001 kPa, x2 = 0.9492	648.3
313.09 K, 8200 kPa, x2 = 0.9492	666.4
313.09 K, 8400 kPa, x2 = 0.9492	677.7
313.09 K, 8509 kPa, x2 = 0.139	788.8
313.09 K, 8606 kPa, x2 = 0.9492	688.5
313.09 K, 8803 kPa, x2 = 0.9492	697
313.09 K, 8995 kPa, x2 = 0.139	789.3
313.09 K, 9002 kPa, x2 = 0.9492	704
313.09 K, 9201 kPa, x2 = 0.9492	710.9
313.09 K, 9408 kPa, x2 = 0.9492	717.1
313.09 K, 9503 kPa, x2 = 0.139	789.8
313.09 K, 9604 kPa, x2 = 0.9492	722.7
313.09 K, 9800 kPa, x2 = 0.9492	728.1
313.09 K, 10003 kPa, x2 = 0.9492	733.1
313.09 K, 10201 kPa, x2 = 0.9492	737.5
313.09 K, 10405 kPa, x2 = 0.9492	741.5
313.09 K, 10605 kPa, x2 = 0.9492	744.7
313.09 K, 10803 kPa, x2 = 0.9492	747.4
313.1 K, 3601 kPa, x2 = 0.2003	786.8
313.1 K, 4007 kPa, x2 = 0.2003	787.4
313.1 K, 4523 kPa, x2 = 0.2003	788.1
313.1 K, 5069 kPa, x2 = 0.2003	788.7
313.1 K, 5497 kPa, x2 = 0.2003	789.3
313.1 K, 5812 kPa, x2 = 0.4248	801.4
313.1 K, 6012 kPa, x2 = 0.4248	801.7
313.1 K, 6027 kPa, x2 = 0.2003	790
313.1 K, 6200 kPa, x2 = 0.4248	802.1
313.1 K, 6395 kPa, x2 = 0.4248	802.6
313.1 K, 6504 kPa, x2 = 0.2003	790.7
313.1 K, 6602 kPa, x2 = 0.4248	803.1
313.1 K, 6803 kPa, x2 = 0.4248	803.5
313.1 K, 7010 kPa, x2 = 0.2003	791.3
313.1 K, 7055 kPa, x2 = 0.4248	804.1
313.1 K, 7208 kPa, x2 = 0.4248	804.3
313.1 K, 7409 kPa, x2 = 0.4248	804.8
313.1 K, 7494 kPa, x2 = 0.2003	791.9
313.1 K, 7611 kPa, x2 = 0.4248	805.2
313.1 K, 7802 kPa, x2 = 0.4248	805.7
313.1 K, 7989 kPa, x2 = 0.2003	792.6
313.1 K, 7998 kPa, x2 = 0.4248	806.1
313.1 K, 8201 kPa, x2 = 0.4248	806.5
313.1 K, 8557 kPa, x2 = 0.2003	793.2
313.1 K, 8597 kPa, x2 = 0.4248	807.3
313.1 K, 8797 kPa, x2 = 0.4248	807.6
313.1 K, 9017 kPa, x2 = 0.2003	793.8
313.1 K, 9024 kPa, x2 = 0.4248	808.1
313.1 K, 9602 kPa, x2 = 0.4248	809.3
313.1 K, 9636 kPa, x2 = 0.2003	794.6
313.1 K, 10055 kPa, x2 = 0.4248	810.1
313.12 K, 6801 kPa, x2 = 0.6086	802.8
313.12 K, 7000 kPa, x2 = 0.6086	803.5
313.12 K, 7203 kPa, x2 = 0.6086	804.4
313.12 K, 7402 kPa, x2 = 0.6086	805.2
313.12 K, 7602 kPa, x2 = 0.6086	806
313.12 K, 7804 kPa, x2 = 0.6086	806.8
313.12 K, 8010 kPa, x2 = 0.6086	807.7
313.12 K, 8124 kPa, x2 = 0.9715	526.2
313.12 K, 8197 kPa, x2 = 0.6086	808.3
313.12 K, 8400 kPa, x2 = 0.6086	809.1
313.12 K, 8526 kPa, x2 = 0.9715	627.3
313.12 K, 8602 kPa, x2 = 0.6086	809.8
313.12 K, 8812 kPa, x2 = 0.6086	810.5
313.12 K, 9000 kPa, x2 = 0.6086	811.3
313.12 K, 9002 kPa, x2 = 0.9715	662.5
313.12 K, 9213 kPa, x2 = 0.6086	812
313.12 K, 9392 kPa, x2 = 0.6086	812.6
313.12 K, 9522 kPa, x2 = 0.9715	689
313.12 K, 9600 kPa, x2 = 0.6086	813.3
313.12 K, 9802 kPa, x2 = 0.6086	814
313.12 K, 10001 kPa, x2 = 0.6086	814.6
313.12 K, 10021 kPa, x2 = 0.9715	708.1
313.12 K, 10520 kPa, x2 = 0.9715	722.7
313.12 K, 10993 kPa, x2 = 0.9715	734.9
313.12 K, 11514 kPa, x2 = 0.9715	746.8
313.12 K, 12038 kPa, x2 = 0.9715	757.3
313.12 K, 12512 kPa, x2 = 0.9715	765.8
313.12 K, 13003 kPa, x2 = 0.9715	773.6
313.12 K, 13500 kPa, x2 = 0.9715	781.1
313.12 K, 13998 kPa, x2 = 0.9715	788.2
313.12 K, 14495 kPa, x2 = 0.9715	794.8
313.12 K, 15008 kPa, x2 = 0.9715	801.1
323.03 K, 6842 kPa, x2 = 0.4248	786.9
323.03 K, 7010 kPa, x2 = 0.4248	787.3
323.03 K, 7302 kPa, x2 = 0.4248	788.1
323.03 K, 7530 kPa, x2 = 0.4248	788.6
323.03 K, 8004 kPa, x2 = 0.4248	789.7
323.03 K, 8302 kPa, x2 = 0.4248	790.4
323.03 K, 8401 kPa, x2 = 0.4248	790.6
323.03 K, 8500 kPa, x2 = 0.4248	790.8
323.03 K, 8603 kPa, x2 = 0.4248	791.2
323.03 K, 8710 kPa, x2 = 0.4248	791.4
323.03 K, 8821 kPa, x2 = 0.4248	791.7
323.03 K, 9000 kPa, x2 = 0.4248	792.1
323.03 K, 9209 kPa, x2 = 0.4248	792.5
323.03 K, 9309 kPa, x2 = 0.4248	792.8
323.03 K, 9401 kPa, x2 = 0.4248	793.1
323.03 K, 9502 kPa, x2 = 0.4248	793.3
323.03 K, 9601 kPa, x2 = 0.4248	793.4
323.03 K, 9728 kPa, x2 = 0.4248	793.7
323.05 K, 2995 kPa, x2 = 0.139	771.3
323.05 K, 3503 kPa, x2 = 0.139	771.9
323.05 K, 4003 kPa, x2 = 0.139	772.6
323.05 K, 4494 kPa, x2 = 0.139	773.2
323.05 K, 5074 kPa, x2 = 0.139	773.9
323.05 K, 5511 kPa, x2 = 0.139	774.5
323.05 K, 6033 kPa, x2 = 0.139	775.2
323.05 K, 7021 kPa, x2 = 0.139	776.4
323.05 K, 7506 kPa, x2 = 0.6086	779.7
323.05 K, 7514 kPa, x2 = 0.139	777.1
323.05 K, 7703 kPa, x2 = 0.6086	780.7
323.05 K, 7803 kPa, x2 = 0.6086	781.1
